Laboratory results as given in patent US20220168276A1, “Mehods and Compositions for Treating SARS-CoV-2 Infection using Carboxyamidotriazole Orotate” (priority 2020, published 2022).
Entries after “also recorded” stand apart in the source; their conditions may differ.

Columns and labels:
[1] = tested on: imatinib mesylate-resistant chronic myeloid leukemia cells; details: by down-regulating bcr-abl; cited from earlier work
[2] = in vivo; cited from earlier work
[3] = cited from earlier work
human T-cells = details: cited from earlier work
SARS-CoV-2 [4] = details: Vero E6 cells
[5] = tested on: non-infected Vero E6 cells; assay type: cell-based; details: cell viability, read-out: EC 50 in non-infected Vero E6 cells
Cytokines in plasma = assay: Phase I trial of CTO in cancer patients: plasma cytokine levels by Milliplex/Luminex panel; assay type: in vivo, human; set-up: key to GM-CSF plasma level / IFNα2 plasma level / IFNγ plasma level / IL-10 plasma level / IL-12p40 plasma level / IL-12p70 plasma level / IL-13 plasma level / IL-15 plasma level / IL-17A plasma level / IL-1RA plasma level / IL-2 plasma level / IL-4 plasma level / IL-6 plasma level / IL-8 plasma level / IP-10 plasma level / MIP1a plasma level / RANTES plasma level / IL-1β plasma level / TNFα plasma level / VEGF plasma level / EGF plasma level: + increased; − decreased
Method: Such an approach described above is based on unexpected findings when CTO was given to cancer patients who volunteered to participate in Phase I clinical studies of CTO to establish its safety and tolerability.
In a Phase I trial of CTO testing the safety and tolerability of CTO in cancer patients, Plasa samples were obtained from three patients after administration of different doses of CTO daily as follows: 1) NSCLC Patient 002-46 (CTO 555 mg/m2), 2) NSCLC Patient 002-50 (CTO 427 mg/m2) and 3) Ovarian Cancer Patient 002-53(CTO 427 mg/m2) The levels of cytokines were measured by using the HCYTMAG-60K-PX30/Milliplex MAP Human Cytokine/Chemokine Magnetic Bead Panel from Milliplex, USA.

[6] = tested on: Akt and Erk1/2 phosphorylation; details: exosomes stimulated HUVEC cell; cited from earlier work
SARS-CoV-2 [7] = assay type: in vivo; details: one patient, 600 mg daily oral, second day
[8] = cancer patients, CTO 427-555 mg/m2 daily, vs baseline

For NC(=O)c1nnn(Cc2cc(Cl)c(C(=O)c3ccc(Cl)cc3)c(Cl)c2)c1N [CAI, carboxyamidotriazole], the apoptosis [1] is listed as “induces apoptosis”, the “TNF-α and IL-1β at the site of inflammation and in serum” value [2] is listed as “decreased” and the “vascular permeability stimulated by VEGF or histamine” value [2] is listed as “inhibited”. The “colitis scored macroscopically and microscopically” value ([3]; animals) was “inhibited”, the NF-kB activation ([3]; in vivo) was “prevented” and the “production of fibrinogenic cytokine transforming growth factor β” value ([3]; in vivo) was “inhibited”. The “production of TNF-α, IL-1β and IL-6” value ([3]; serum, supernatant of peritoneal macrophages and lamina propria) was “inhibited” and the “calcium influx and HIV LTR transcription dependent on it” value (human T-cells) was “modulated”.

In the case of NC(=O)c1nnn(Cc2cc(Cl)c(C(=O)c3ccc(Cl)cc3)c(Cl)c2)c1N.O=C(O)c1cc(=O)[nH]c(=O)[nH]1 [CTO, 5-amino-1-(4-(4-chlorobenzyl)-1,2,3-triazole-4-carboxamide orotate], the IC50 (SARS-CoV-2 [4]; read-out: IC50, cytopathic effect (CPE) for SARS-CoV-2, 72 hours post-inoculation, 20 μM highest dose tested) is reported as over 20 µM and the EC50 [5] is reported as 14.9 µM.

With NC(=O)c1nnn(Cc2cc(Cl)c(C(=O)c3ccc(Cl)cc3)c(Cl)c2)c1N.O=C(O)c1cc(=O)[nH]c(=O)[nH]1 [CTO] the EGF plasma level (Cytokines in plasma; [8]) was “EGF- (+)”, the GM-CSF plasma level (Cytokines in plasma; [8]) was “GM-CSF- (−)” and the IFNα2 plasma level (Cytokines in plasma; [8]) was “IFNα2- (+)”. For the same compound, the IFNγ plasma level (Cytokines in plasma; [8]) was “IFNγ- (−)”, the IL-1RA plasma level (Cytokines in plasma; [8]) was “IL-1RA- (−)” and the IL-1β plasma level (Cytokines in plasma; [8]) was “**IL-1β- (−)”. For the same compound, the IL-2 plasma level (Cytokines in plasma; [8]) was “IL-2- (−)”, the IL-4 plasma level (Cytokines in plasma; [8]) was “IL-4- (−)” and the IL-6 plasma level (Cytokines in plasma; [8]) was “IL-6- (−)”. The IL-8 plasma level (Cytokines in plasma; [8]) was “IL-8-(−)”, the IL-10 plasma level (Cytokines in plasma; [8]) was “IL-10- (+)” and the IL-12p40 plasma level (Cytokines in plasma; [8]) was “IL-12p40- (+)”. For the same compound, the IL-12p70 plasma level (Cytokines in plasma; [8]) was “IL-12p70- (−)”, the IL-13 plasma level (Cytokines in plasma; [8]) was “IL-13-(−)” and the IL-15 plasma level (Cytokines in plasma; [8]) was “IL-15- (−)”. For the same compound, the IL-17A plasma level (Cytokines in plasma; [8]) was “IL-17A- (−)”, the IP-10 plasma level (Cytokines in plasma; [8]) was “IP-10- (−)” and the MIP1a plasma level (Cytokines in plasma; [8]) was “MIP1a- (−)”. The RANTES plasma level (Cytokines in plasma; [8]) was “RANTES- (+)”, the TNFα plasma level (Cytokines in plasma; [8]) was “**TNFα- (−)” and the VEGF plasma level (Cytokines in plasma; [8]) was “VEGF- (−)”. For the same compound, the “levels of cytokines including EGF, IFN α2, IL-10, IL-12p40” value (Cytokines in plasma; plasma, CTO 427 mg/m2 to 555 mg/m2) was “increase”, the “levels of several cytokines including VEGF, GM-CSF, INF-γ, IL-2, IL-12p70, IL-13, IL-15, IL-17a, IL-1RA, IL-1α, IL-2, IL1-4, IL-6, IL-8, il-10, MIP1-α, IL-1β, TNF-α” value (Cytokines in plasma; plasma, CTO 427 mg/m2 to 555 mg/m2, forty-eight hours interval after CTO, vs baseline) was “reduced; also recorded: reduction” and the “Akt and Erk1/2 phosphorylation” value [6] was “inhibits”. The “concentration up to which CTO inhibited replication of SARS-CoV-2” value (SARS-CoV-2 [4]) was “up to 5 μM”, the cell viability (SARS-CoV-2 [4]; CTO up to 5 μM) was “above 90%” and the “Maximum % Inhibition of CPE” value (SARS-CoV-2 [4]; recorded <20 μM concentration) was 29.03%. The COVID-19 symptoms (SARS-CoV-2 [7]) was “great improvement in most of the symptoms” and the body weight (SARS-CoV-2 [7]; lost twelve pounds before treatment) was “remained at constant weight”.
